# From US20160168140A1, “HETEROCYCLIC COMPOUNDS AS ANTIBIOTIC POTENTIATORS” (priority 2014, published 2016)
# Test system: Acinetobacter baumannii (Ab23)
# Assay: MIC shift assay of antibiotics (broth microdilution)
# Assay type: cell-based
# Settings: compound concentration 2 μM; fold shift of colistin MIC; nc = no changeover or no shift
# Description: Minimum inhibitory concentration (MIC) shift assays were performed to determine if the test compounds could alter the MIC of existing antibacterial drugs (e.g., ciprofloxacin and colistin) for E. coli, Acinetobacter baumannii, Klebsiella pneumoniae, Pseudomonas aeruginosa, and Enterobacter cloacae. The MIC shift assay is based on the standard broth microdilution MIC determination protocol of Wiegand et al, Nat Protoc. 3(2):163-75 (2008), with slight modifications that allow for the screening of up to seven test compounds in a single plate.
# On the day before an assay, bacteria were grown overnight in cation-adjusted Mueller Hinton broth (CAMHB; Teknova, Hollister, Calif.) at 37° C. in an orbital shaker and sub-cultured at a 1:200 dilution the following morning. The cells were grown to OD600=0.5 to 0.8 and then diluted to OD600=0.01. From a serial dilution of each antibiotic at (50 μL of 2× concentrated stock solutions) several concentrations were added to the wells of a sterile, transparent round-bottom 96-well plate (Phenix Research Products, Candler, N.C.), and diluted cells (50 μL) were added to the plates for a starting OD600 of 0.005. […] A row of wells lacking test compound but containing the antibiotic was used to determine the MIC of that antibiotic alone. A column of wells lacking both antibiotic and test compound served as a growth control, and an additional column containing only CAMHB was included as a sterile blank control.
# The plates were incubated for 18 to 20 h at 37° C. in an orbital shaker, and the cell density (OD600) was determined the following day in a microplate reader (PolarStar Optima, BMG Labtech). The MIC shift was determined by comparing the MIC of the antibiotic alone to the MIC of the antibiotic plus test compound.
row,SMILES,"colistin MIC shift, Ab23 at (compd concentration)"
1,CN(C)CCCNc1nc(-c2cc(-c3ccccc3)cc(C(F)(F)F)c2)nc2c(Cl)cccc12 [compound 340],8-16x
2,Cc1cccc2c(NCCCN(C)C)nc(-c3cc(-c4ccccc4F)cc(C(F)(F)F)c3)nc12 [compound 341],8-16x
3,Cc1cccc2c(NCCCN(C)C)nc(-c3cccc(-c4cc(F)cc(C(F)(F)F)c4)c3)nc12 [compound 344],8-16x
4,Cc1cccc2c(NCCCN(C)C)nc(-c3cc(-c4cncs4)cc(C(F)(F)F)c3)nc12 [compound 346],8-16x
5,Cc1cccc2c(NCCCN3CCCCC3)nc(-c3cc(Br)cc(C(F)(F)F)c3)nc12 [compound 347],8-16x
6,CNCCCN(C)c1nc(-c2cc(-c3ccccc3)cc(C(F)(F)F)c2)nc2c(C)cccc12 [compound 349],8-16x
7,CNCCCN(C)c1nc(-c2cccc(-c3cc(F)cc(C(F)(F)F)c3)c2)nc2c(Cl)cccc12 [compound 350],8-16x
8,CN(C)CCCNc1nc(-c2cccc(-c3ccccc3Cl)c2)nc2c(Cl)cccc12 [compound 351],8-16x
9,CCN(CC)CCCNc1nc(-c2cc(Br)cc(C(F)(F)F)c2)nc2c(C)cccc12 [compound 352],8-16x
10,Cc1cccc2c(NCCCN3CCN(C)CC3)nc(-c3cc(Br)cc(C(F)(F)F)c3)nc12 [compound 354],8-16x
11,Cc1cccc2c(NCCCN(C)C)nc(-c3cccc(-c4ccc(C(F)(F)F)c(F)c4)c3)nc12 [compound 355],8-16x
12,CN(C)CC(=O)n1cc(-c2ccc(Cl)c(Cl)c2)c2cc(Cl)ccc21 [compound 362],16x
13,Clc1ccc(/C=C/c2c[nH]c3ccc(Br)cc23)cc1Cl [compound 363],≧16x (2 μM)
14,Clc1ccc2[nH]cc(/C=C/c3ccc(Cl)c(Cl)c3)c2c1 [compound 365],≧16x (2 μM)
15,Fc1ccc2c(/C=C/c3cccc(Cl)c3Cl)c[nH]c2c1 [compound 383],≧16x (2μM)

# Same assay, conditions: compound concentration 4 μM; fold shift of colistin MIC; nc = no changeover or no shift
row,SMILES,"colistin MIC shift, Ab23 at (compd concentration)"
1,CN(C)CCCn1cc(/C=C/c2ccc(Cl)c(Cl)c2)c2cc(Br)ccc21 [compound 356],16-64x
2,CN1CCN(CCn2cc(/C=C/c3ccc(Cl)c(Cl)c3)c3ccc(F)cc32)CC1 [compound 357],4-8x
3,CN(C)CCCn1cc(-c2ccc(Cl)c(Cl)c2)c2cc(Cl)ccc21 [compound 359],16x
4,Clc1ccc(/C=C/c2c[nH]c3ccc(Br)cc23)cc1Cl [compound 363],32-64x (4 μM);
5,FC(F)(F)c1ccc2c(/C=C/c3ccc(Cl)c(Cl)c3)c[nH]c2c1 [compound 364],32-64x
6,Clc1ccc2[nH]cc(/C=C/c3ccc(Cl)c(Cl)c3)c2c1 [compound 365],16-64x (4 μM);
7,Fc1ccc2c(/C=C/c3ccc(Cl)c(Cl)c3)c[nH]c2c1 [compound 366],16-32x
8,Clc1ccc(/C=C/c2c[nH]c3cc(Br)ccc23)cc1Cl [compound 367],16-32x
9,Fc1ccc2[nH]cc(/C=C/c3ccc(Cl)c(Cl)c3)c2c1 [compound 368],16-32x
10,FC(F)(F)c1ccc2[nH]cc(/C=C/c3ccc(Cl)c(Cl)c3)c2c1 [compound 369],32x
11,Cc1ccc2[nH]cc(/C=C/c3ccc(Cl)c(Cl)c3)c2c1 [compound 370],32x
12,FC(F)(F)c1cccc2[nH]cc(/C=C/c3ccc(Cl)c(Cl)c3)c12 [compound 371],32x
13,Fc1cccc2[nH]cc(/C=C/c3ccc(Cl)c(Cl)c3)c12 [compound 372],8-32x
14,COc1ccc2[nH]cc(/C=C/c3ccc(Cl)c(Cl)c3)c2c1 [compound 373],8-16x
15,Clc1ccc(/C=C/c2c[nH]c3cc(Cl)c(Cl)cc23)cc1Cl [compound 374],16x
16,N#Cc1ccc2[nH]cc(/C=C/c3ccc(Cl)c(Cl)c3)c2c1 [compound 375],2x
17,Fc1ccc2c(/C=C/c3ccc(Br)c(Br)c3)c[nH]c2c1 [compound 378],16-32 x
18,O=[N+]([O-])c1ccc2[nH]cc(/C=C/c3ccc(Cl)c(Cl)c3)c2c1 [compound 379],8x

row,SMILES,"colistin MIC shift, Ab23 at (compd concentration)"
1,O=[N+]([O-])c1ccc2[nH]cc(/C=C\c3ccc(Cl)c(Cl)c3)c2c1 [compound 380],8x
2,Fc1ccc2c(/C=C/c3cccc(Cl)c3Cl)c[nH]c2c1 [compound 383],32x (4 μM);
3,Fc1ccc2c(/C=C/c3cc(Cl)ccc3Cl)c[nH]c2c1 [compound 384],8-16x
4,Fc1ccc2c(/C=C/c3ccc(F)c(C(F)(F)F)c3)c[nH]c2c1 [compound 385],8-16 x
5,Fc1ccc2c(/C=C/c3cc(C(F)(F)F)cc(C(F)(F)F)c3)c[nH]c2c1 [compound 386],16x
6,Fc1ccc2c(/C=C/c3ccc(C(F)(F)F)cc3)c[nH]c2c1 [compound 387],16x
7,Fc1ccc2c(/C=C/c3cc(Cl)cc(Cl)c3)c[nH]c2c1 [compound 388],16x
8,Fc1ccc2c(/C=C/c3cc(Br)cc(Br)c3)c[nH]c2c1 [compound 389],16x
9,"FC(F)(F)c1ccc2c(-c3ccc(Cl)c(Cl)c3)n[nH]c2c1 [compound 390, 3-(3,4-dichlorophenyl)-6-(trifluoromethyl)-1H-indazole]",16x
10,"FC(F)(F)c1ccc2c(-c3ccc(Cl)c(Cl)c3)nn(Cc3ccc(Cl)cc3)c2c1 [compound 391, 1-(4-chlorobenzyl)-3-(3,4-dichlorophenyl)-6-(trifluoromethyl)-1H-indazole]",16x
11,"O=C(c1ccc(Cl)c(Cl)c1)n1nc(-c2ccc(Cl)c(Cl)c2)c2ccc(C(F)(F)F)cc21 [compound 392, (3,4-dichlorophenyl)(3-(3,4-dichlorophenyl)-6-(trifluoromethyl)-1H-indazol-1-yl)methanone]",16x
12,Fc1ccc2c(/C=C/c3ccc(C(F)(F)F)c(Cl)c3)c[nH]c2c1 [compound 393],16x
13,Fc1ccc2c(/C=C/c3ccc(OC(F)(F)F)cc3)c[nH]c2c1 [compound 394],8x
14,"Clc1ccc2[nH]cc(-c3ccc(Cl)c(Cl)c3)c2c1 [compound 395, 5-Chloro-3-(3,4-dichlorophenyl)-1H-indole]",8x
15,Fc1ccc2c(/C=C/c3cccc(C(F)(F)F)c3)c[nH]c2c1 [compound 396],8x
16,Fc1ccc2c(/C=C/c3cc(Cl)c(Cl)c(Cl)c3)c[nH]c2c1 [compound 397],8x
17,"FC(F)(F)c1cccc(-c2ccc3[nH]ccc3c2)c1 [compound 398, 5-(3-(trifluoromethyl)phenyl)-1H-indole]",4x

# Same assay, conditions: compound concentration 10 μM; fold shift of colistin MIC; nc = no changeover or no shift
row,SMILES,"colistin MIC shift, Ab23 at (compd concentration) [x]"
1,Fc1cccc(/C=C/c2c[nH]c3cc(F)ccc23)c1 [compound 399],8
